Assay type in all cases: cell-based
Experiment [1] concerns human lung fibroblasts HFL1. Nature of the experiment: Anti-fibrosis activity test: inhibition of proliferation of human lung fibroblasts HFL1 (CCK-8). The settings on record: Homo sapiens, HFL1, 48 h, human lung fibroblasts HFL1, CCK-8, 48 hours. A digest of the protocol:
(§1)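 A CCK-8 proliferation assay was run: cells at 2×10^4 cells/mL, adherent for 24 h, then incubated 48 h at 37° C with compound dilutions. A450 was recorded 2 h after CCK-8 addition and converted to percent inhibition versus blank for IC50 determination.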

Experiment [2] has as its system human embryonic lung fibroblast IMR-90. As to the kind of experiment: Anti-fibrosis activity test: inhibition of proliferation of human embryonic lung fibroblast IMR-90 (CCK-8). The settings on record: human embryonic lung fibroblast IMR-90, CCK-8, 48 hours. A digest of the protocol:
as §1

Experiment [3] concerns human dermal fibroblasts CCC-ESF-1. Nature of the experiment: Anti-fibrosis activity test: inhibition of proliferation of human dermal fibroblasts CCC-ESF-1 (CCK-8). The settings on record: Fibroblast; human dermal fibroblasts CCC-ESF-1, CCK-8, 48 hours. A digest of the protocol:
as §1

Experiment [4] concerns mouse macrophages (RAW264.7). As to the kind of experiment: Lipopolysaccharide-induced NO secretion in macrophages (Griess). As to conditions: Mus musculus, RAW264.7, 24 h, RAW264.7, LPS 1 μg/ml, a/b isomers given as first/second symbol, read-out: IC50 (μM), inhibition of lipopolysaccharide-induced NO secretion in macrophages. A digest of the protocol: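 Absorbance at 548 nm after Griess reagent addition to culture supernatant gave NO content; inhibition rate was derived relative to blank control. Cells were mouse RAW264.7 macrophages exposed to compounds and 1 μg/ml LPS for 24 hours.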
In general terms: Nitrite, measured by Griess reagent, commonly stands in for NO production.

Experiment [5] concerns cardiac fibroblast RAT-iCell-C002. As to the kind of experiment: Anti-fibrosis activity test: inhibition of proliferation of cardiac fibroblast RAT-iCell-C002 (CCK-8). The settings on record: Cardiac fibroblast, 48 h, cardiac fibroblast RAT-iCell-C002, CCK-8, 48 hours. A digest of the protocol:
as §1

Experiment [6] has as its system human hepatic stellate cells LX-2. Nature of the experiment: Anti-fibrosis activity test: inhibition of proliferation of human hepatic stellate cells LX-2 (CCK-8). As to conditions: Homo sapiens, 48 h, human hepatic stellate cells LX-2, CCK-8, 48 hours. A digest of the protocol:
as §1

In a further experiment the test system is BHK-21 cells. Nature of the experiment: Anti-fibrosis activity test: inhibition of BHK-21 cell proliferation (CCK-8). As to conditions: Mesocricetus auratus, BHK-21, 48 h, CCK-8, 48 hours after administration. A digest of the protocol:
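Proliferation of BHK-21 cells is measured by CCK-8 at 450 nm following 48 h compound exposure at several concentrations. Inhibition is expressed relative to blank control and IC50 is computed from it.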

The test system of experiment [7] is human fibrosarcoma cells HT-1080. Nature of the experiment: Anti-fibrosis activity test: inhibition of proliferation of human fibrosarcoma cells HT-1080 (CCK-8). The settings on record: Homo sapiens, HT-1080, 48 h, human fibrosarcoma cells HT-1080, CCK-8, 48 hours. A digest of the protocol:
as §1

What is called IC50 is the concentration that gives 50% inhibition.

On to `O=C1c2c(nc3c(Cl)cccc3c2OCc2ccccc2Cl)-c2cccn21` [Compound 461b, 5-chloro-9-((2-chlorobenzyl)oxy)-10H-pyrrolizino[1,2-b]quinolin-10-one], for which the IC50 lay within 0.05 to 5 mM in experiment [1]; 0.05 to 5 mM in experiment [2]; 0.05 to 5 mM in experiment [3]; 1 to 10 µM in experiment [4]; 0.05 to 5 mM in experiment [5]; 0.05 to 5 mM in experiment [6]. Further, the IC50 (with BHK-21 cells; in experiment [7]) was 0.05 to 5 mM each time.

As for `N#Cc1cccc2c1c(=O)c1c(n2Cc2cccc(F)c2)-c2cccn2C1=O` [Compound 463a, 4-(3-Fluorobenzyl)-9,10-dioxo-4,10-dihydro-9H-pyrrolizino[1,2-b]quinoline-8-carbonitrile], the IC50 in experiment [1] was 0.05 to 5 mM; in experiment [2] it was 0.05 to 5 mM; in experiment [3] it was 0.05 to 5 mM; in experiment [4], 1 to 10 µM; in experiment [5], 0.05 to 5 mM; in experiment [6], 0.05 to 5 mM. Besides, the IC50 in the experiment on BHK-21 cells was in the range of 0.05 to 5 mM; in experiment [7], 5 to 20 mM.

Regarding `N#Cc1cccc2nc3c(c(OCc4cccc(F)c4)c12)C(=O)n1cccc1-3` [Compound 463b, 9-((3-fluorobenzyl)oxy)-10-oxo-10H-pyrrolizino[1,2-b]quinoline-8-carbonitrile], the IC50 in experiment [1] was 0.05 to 5 mM; in experiment [2] it was 0.05 to 5 mM; in experiment [3], 0.05 to 5 mM; in experiment [4] it was 1 to 10 µM; in experiment [5], 0.05 to 5 mM; in experiment [6], 0.05 to 5 mM. Moreover, the IC50 (in the experiment with BHK-21 cells; in experiment [7]) was 0.05 to 5 mM in each case.

As for `O=C1c2c(n(Cc3ccc(Cl)cc3)c3cccc(C(F)(F)F)c3c2=O)-c2cccn21` [Compound 465a, 4-(4-Chlorobenzyl)-8-(trifluoromethyl)-9H-pyrrolizino[1,2-b]quinoline-9,10(4H)-dione], the IC50 in experiment [1] fell in the range of 0.05 to 5 mM; in experiment [2], 0.05 to 5 mM; in experiment [3] it was 0.05 to 5 mM; in experiment [4], 0.1 to 1 µM; in experiment [5], 0.05 to 5 mM; in experiment [6] it was 0.05 to 5 mM. For the same molecule, the IC50 (in the experiment on BHK-21 cells; in experiment [7]) was 0.05 to 5 mM in each case.

With `O=C1c2c(nc3cccc(C(F)(F)F)c3c2OCc2ccc(Cl)cc2)-c2cccn21` [Compound 465b, 9-((4-chlorobenzyl)oxy)-8-(trifluoromethyl)-10H-pyrrolizino[1,2-b]quinolin-10-one], the IC50 in experiment [1] fell in the range of 0.05 to 5 mM; in experiment [2], 0.05 to 5 mM; in experiment [3], 0.05 to 5 mM; in experiment [4] it was 10 to 50 µM; in experiment [5], 0.05 to 5 mM; in experiment [6], 0.05 to 5 mM. The IC50 (in the experiment with BHK-21 cells; in experiment [7]) was 0.05 to 5 mM each time.

With `O=C1c2c(n(Cc3cccc(Cl)c3)c3cccc(C(F)(F)F)c3c2=O)-c2cccn21` [Compound 466a, 4-(3-Chlorobenzyl)-8-(trifluoromethyl)-9H-pyrrolizino[1,2-b]quinoline-9,10(4H)-dione], the IC50 was 0.05 to 5 mM in experiment [1]; 0.05 to 5 mM in experiment [2]; 0.05 to 5 mM in experiment [3]; 1 to 10 µM in experiment [4]; 0.05 to 5 mM in experiment [5]; < 0.05 mM in experiment [6]. For the same molecule, the half-maximal inhibitory concentration (IC50) (in the experiment with BHK-21 cells; in experiment [7]) was 0.05 to 5 mM throughout.

As for `O=C1c2c(nc3cccc(C(F)(F)F)c3c2OCc2cccc(Cl)c2)-c2cccn21` [Compound 466b, 9-((3-chlorobenzyl)oxy)-8-(trifluoromethyl)-10H-pyrrolizino[1,2-b]quinolin-10-one], the IC50 lay in the range of 0.05 to 5 mM in experiment [1]; 0.05 to 5 mM in experiment [2]; 0.05 to 5 mM in experiment [3]; 1 to 10 µM in experiment [4]; 0.05 to 5 mM in experiment [5]; 0.05 to 5 mM in experiment [6]. In addition, the IC50 (in the experiment on BHK-21 cells; in experiment [7]) was 0.05 to 5 mM in each case.

On to `O=C1c2c([nH]c3cccc(F)c3c2=O)-c2cccn21` [Compound 467a, 8-Fluoro-9H-pyrrolizino[1,2-b]quinoline-9,10(4H)-dione], for which the IC50 lay in the range of 0.05 to 5 mM in experiment [1]; 0.05 to 5 mM in experiment [2]; 0.05 to 5 mM in experiment [3]; 1 to 10 µM in experiment [4]; 0.05 to 5 mM in experiment [5]; 0.05 to 5 mM in experiment [6]. In addition, the IC50 was < 0.05 mM in the experiment with BHK-21 cells and 0.05 to 5 mM in experiment [7].

For `O=C1c2c(nc3cccc(F)c3c2O)-c2cccn21` [Compound 467b, 8-fluoro-9-hydroxy-10H-pyrrolizino[1,2-b]quinolin-10-one], the IC50 in experiment [1] lay in the range of 0.05 to 5 mM; in experiment [2] it was 0.05 to 5 mM; in experiment [3], 0.05 to 5 mM; in experiment [4] it was 1 to 10 µM; in experiment [5], 0.05 to 5 mM; in experiment [6], 0.05 to 5 mM. The IC50 (in the experiment with BHK-21 cells; in experiment [7]) was 0.05 to 5 mM each time.

On to `N#Cc1cccc2c1c(=O)c1c(n2Cc2ccccc2F)-c2cccn2C1=O` [Compound 469a, 4-(2-Fluorobenzyl)-9,10-dioxo-4,10-dihydro-9H-pyrrolizino[1,2-b]quinoline-8-carbonitrile], for which the 50% inhibitory concentration (IC50) in experiment [1] is 0.05 to 5 mM; in experiment [2] it was 0.05 to 5 mM; in experiment [3] it was 0.05 to 5 mM; in experiment [4], 0.1 to 1 µM; in experiment [5], 0.05 to 5 mM; in experiment [6] it was 0.05 to 5 mM. Also, the IC50 is < 0.05 mM with BHK-21 cells and 5 to 20 mM in experiment [7].

On to `N#Cc1cccc2nc3c(c(OCc4ccccc4F)c12)C(=O)n1cccc1-3` [Compound 469b, 9-((2-fluorobenzyl)oxy)-10-oxo-10H-pyrrolizino[1,2-b]quinoline-8-carbonitrile], for which the IC50 lay within 0.05 to 5 mM in experiment [1]; 0.05 to 5 mM in experiment [2]; 0.05 to 5 mM in experiment [3]; 10 to 50 µM in experiment [4]; 0.05 to 5 mM in experiment [5]; 0.05 to 5 mM in experiment [6]. For the same molecule, the IC50 (in the experiment on BHK-21 cells; in experiment [7]) was 0.05 to 5 mM each time.

For the molecule `O=C1c2c([nH]c3cccc(O)c3c2=O)-c2cccn21` [Compound 470a, 8-Hydroxy-9H-pyrrolizino[1,2-b]quinoline-9,10(4H)-dione], the IC50 in experiment [1] was in the range of 0.05 to 5 mM; in experiment [2], 0.05 to 5 mM; in experiment [3] it was 0.05 to 5 mM; in experiment [4], 0.1 to 1 µM; in experiment [5], 0.05 to 5 mM; in experiment [6], 0.05 to 5 mM. The IC50 (in the experiment with BHK-21 cells; in experiment [7]) was 0.05 to 5 mM throughout.

As to `O=C1c2c(nc3cccc(O)c3c2O)-c2cccn21` [Compound 470b, 8,9-dihydroxy-10H-pyrrolizino[1,2-b]quinolin-10-one], the IC50 in experiment [1] was 0.05 to 5 mM; in experiment [2], 0.05 to 5 mM; in experiment [3] it was 0.05 to 5 mM; in experiment [4] it was 1 to 10 µM; in experiment [5] it was 0.05 to 5 mM; in experiment [6], 0.05 to 5 mM. Besides, the IC50 (in the experiment on BHK-21 cells; in experiment [7]) was 0.05 to 5 mM throughout.

Turning to `O=C1c2c(n(Cc3ccc(Cl)cc3)c3cccc(F)c3c2=O)-c2cccn21` [Compound 471a, 4-(4-Chlorobenzyl)-8-fluoro-9H-pyrrolizino[1,2-b]quinoline-9,10(4H)-dione], the IC50 in experiment [1] is 0.05 to 5 mM; in experiment [2], 0.05 to 5 mM; in experiment [3] it was 0.05 to 5 mM; in experiment [4], 0.1 to 1 µM; in experiment [5] it was 0.05 to 5 mM; in experiment [6], < 0.05 mM. The IC50 (in the experiment with BHK-21 cells; in experiment [7]) was 0.05 to 5 mM throughout.

In the case of `O=C1c2c(nc3cccc(F)c3c2OCc2ccc(Cl)cc2)-c2cccn21` [Compound 471b, 9-((4-chlorobenzyl)oxy)-8-fluoro-10H-pyrrolizino[1,2-b]quinolin-10-one], the IC50 in experiment [1] was 0.05 to 5 mM; in experiment [2], 0.05 to 5 mM; in experiment [3] it was 0.05 to 5 mM; in experiment [4], 1 to 10 µM; in experiment [5] it was 0.05 to 5 mM; in experiment [6] it was 0.05 to 5 mM. In addition, the IC50 (in the experiment with BHK-21 cells; in experiment [7]) was 0.05 to 5 mM in each case.

Take `O=C1c2c(n(Cc3ccccc3Cl)c3cccc(C(F)(F)F)c3c2=O)-c2cccn21` [Compound 472a, 4-(2-Chlorobenzyl)-8-(trifluoromethyl)-9H-pyrrolizino[1,2-b]quinoline-9,10(4H)-dione]: the IC50 in experiment [1] is 0.05 to 5 mM; in experiment [2], 0.05 to 5 mM; in experiment [3], 0.05 to 5 mM; in experiment [4], 1 to 10 µM; in experiment [5], 0.05 to 5 mM; in experiment [6] it was 0.05 to 5 mM. Further, the IC50 in the experiment on BHK-21 cells was < 0.05 mM; in experiment [7] it was 0.05 to 5 mM.

As for `O=C1c2c(nc3cccc(C(F)(F)F)c3c2OCc2ccccc2Cl)-c2cccn21` [Compound 472b, 9-((2-chlorobenzyl)oxy)-8-(trifluoromethyl)-10H-pyrrolizino[1,2-b]quinolin-10-one], the IC50 lay in the range of 0.05 to 5 mM in experiment [1]; 0.05 to 5 mM in experiment [2]; 0.05 to 5 mM in experiment [3]; 1 to 10 µM in experiment [4]; 0.05 to 5 mM in experiment [5]; 0.05 to 5 mM in experiment [6]. Besides, the IC50 (in the experiment on BHK-21 cells; in experiment [7]) was 0.05 to 5 mM each time.

Source of the values: patent publication US11040028B2, “Penicinotam derivative, preparation method and use thereof” (OCEAN UNIVERSITY OF CHINA, priority 2017, dated 2021).
